In patent US20090137493A1, “Inhibition of tumor metastases using protein kinase C (PKC) inhibitors” (priority 2007, published 2009):
Bridges are numbered along the chain shown (N, C = ends). Where no end group is shown, it is not given here.

Assays:
[1] = test system: MDA-MB-231 breast cancer cells; assay: Cell migration/invasion assay through a HUVEC monolayer, MDA-MB-231; type: cell-based, human; details: peptide 10 μM, re-applied every 2 hours for 10 hours
Description: (§1) FIGS. 14A and 14B are bar graphs showing the efficacy of TAT carrier peptide (TAT), αV5-3-TAT peptide (Alpha), βIIV5-3 peptide (Beta-2), and εV1-2 (Epsilon) in inhibiting the invasion of human MDA-MB-231 and MCF-7 breast cancer cells through a HUVEC monolayer. FIGS. 14C and 14D are bar graphs showing the efficacy of TAT carrier peptide (TAT) or αV5-3-TAT peptide in inhibiting the invasion of 4T1 (FIG. 11C) and MDA-MB-231 (FIG. 11D) cells.
as §1, with “14B show the results of a related experiment measuring” for “14B are bar graphs showing”, “εV1-2 peptide” for “εV1-2”, “14D show the results of a similar experiment” for “14D are bar graphs”
Cell Migration/invasion assay: Primary human endothelial cells (HUVEC's) were plated on top of a matrigel plug in trans-well plates. Once the cells had reached confluence (as determined by examination of a control well), 1×10^6 human breast cancer cells (MCF-7 or MDA-MB-231) expressing luciferase were added above the HUVEC cell layer. Where applicable, peptides were added to a final concentration of 10 μM and re-applied every 2 hours for 10 hours followed by further incubation. After 24-48 hours-incubation the HUVEC cell layer (and all other cells above the matrigel) were removed by scraping of the cell layer into the media and aspiration (repeated 3 times). The relative numbers of cancer cells that had crossed the HUVEC cell layer and entered the matrigel was then determined by bioluminescence detection of luciferase action following addition of luciferin substrate.

tumor cells = assay: Histology of lung tissue after fatpad implantation or intravenous injection of tumor cells; type: in vivo, mice; details: four weeks after fatpad implantation or two weeks after intravenous injection of tumor cells, versus TAT
Description: FIGS. 8A-8B are computer-generated photomicrographs of lung tissue from mice four weeks following fatpad implantation of tumor cells. Osmotic pumps were implanted 1 week after fatpad implantation, for delivering TAT (control; FIG. 8A) or αV5-3-TAT peptide (PKC a inhibitor; FIG. 8B).
FIGS. 8C-8D are computer-generated photomicrographs of lung tissue from mice two weeks after intravenous injection of tumor cells. Osmotic pumps were implanted two days prior to […], for delivering TAT (control; FIG. 8C) or αV5-3-TAT peptide (PKC a inhibitor; FIG. 8D).
FIGS. 8A-8D are computer-generated photomicrographs of lung tissue from mice four weeks following fatpad implantation of tumor cells (FIGS. 8A-8B) or two weeks after intravenous injection of tumor cells (FIGS. 8C-8D).

Substance: YGRKKRRQRRR-CC-QLVIAN (YGRKKRRQRRRCCQLVIAN; disulfide 12-13 (inferred)) [αV5-3-TAT]
- invasion of MDA-MB-231 cells through a HUVEC monolayer [1]: reduced
- invasion of lung tissues by tumor cells (histology) (tumor cells): reduced
